This assay deals with MV-4-11 cells. In words: Gene expression microarray analysis (Affymetrix PrimeView) and GSEA. It counts as cell-based, human. Also on record: RFU PODN (11730768_x_at) / Fold change /veh PODN (11730768_x_at) / RFU LINC00158 (11744669_a_at) / Fold change /veh LINC00158 (11744669_a_at) / RFU DUSP10 (11751237_a_at) / Fold change /veh DUSP10 (11751237_a_at) / RFU ID3 (11757404_x_at) / Fold change /veh ID3 (11757404_x_at) / RFU PLEKHG5 (11737974_s_at) / Fold change /veh PLEKHG5 (11737974_s_at) / RFU LRRC4B (11730491_at) / Fold change /veh LRRC4B (11730491_at) / RFU GIMAP4 (11747438_a_at) / Fold change /veh GIMAP4 (11747438_a_at) / RFU KRT8 (11758183_x_at) / Fold change /veh KRT8 (11758183_x_at) / RFU CNN1 (11734310_a_at) / Fold change /veh CNN1 (11734310_a_at) / RFU VPS37D (11726825_at) / Fold change /veh VPS37D (11726825_at) / RFU C10orf10 (11716522_x_at) / Fold change /veh C10orf10 (11716522_x_at) / RFU KIR2DL2 /// KIR2DL4 /// KIR2DL5A /// KIR2DL5B /// KIR2DS1 /// KIR2DS2 /// KIR2DS3 /// KIR2DS4 /// KIR3DL3 /// KIR3DL3 /// KIR3DS1 (11738374_at) / Fold change /veh KIR2DL2 /// KIR2DL4 /// KIR2DL5A /// KIR2DL5B /// KIR2DS1 /// KIR2DS2 /// KIR2DS3 /// KIR2DS4 /// KIR3DL3 /// KIR3DL3 /// KIR3DS1 (11738374_at) / RFU C1QL1 (11718748_at) / Fold change /veh C1QL1 (11718748_at) / RFU TMPRSS4 (11747572_a_at) / Fold change /veh TMPRSS4 (11747572_a_at) / RFU HAMP (11756126_x_at) / Fold change /veh HAMP (11756126_x_at) / RFU RNFT2 (11725882_a_at) / Fold change /veh RNFT2 (11725882_a_at) / RFU NR4A2 (11747474_a_at) / Fold change /veh NR4A2 (11747474_a_at) / RFU ABCC12 (11746883_a_at) / Fold change /veh ABCC12 (11746883_a_at) / RFU TMEM136 (11760407_x_at) / Fold change /veh TMEM136 (11760407_x_at) / RFU CLDN22 /// WWC2 (11732394_at) / Fold change /veh CLDN22 /// WWC2 (11732394_at) / RFU HLA-DPB1 (11760878_x_at) / Fold change /veh HLA-DPB1 (11760878_x_at) / RFU SPINT1 (11716480_a_at) / Fold change /veh SPINT1 (11716480_a_at) / RFU GAP43 (11754022_s_at) / Fold change /veh GAP43 (11754022_s_at) / RFU A4GNT (11735810_at) / Fold change /veh A4GNT (11735810_at) / RFU PRB3 (11715151_x_at) / Fold change /veh PRB3 (11715151_x_at) / RFU TUBB4B (11761932_at) / Fold change /veh TUBB4B (11761932_at) / RFU CAPN14 (11732068_a_at) / Fold change /veh CAPN14 (11732068_a_at) / RFU TMCC2 (11721928_a_at) / Fold change /veh TMCC2 (11721928_a_at) / RFU IRGQ (11745062_a_at) / Fold change /veh IRGQ (11745062_a_at) / RFU FAM174B (11720279_a_at) / Fold change /veh FAM174B (11720279_a_at) / RFU TMPRSS4 (11748680_a_at) / Fold change /veh TMPRSS4 (11748680_a_at) / RFU FAM212B (11763350_a_at) / Fold change /veh FAM212B (11763350_a_at) / RFU PLEKHG5 (11743358_a_at) / Fold change /veh PLEKHG5 (11743358_a_at) / RFU ZSCAN30 (11745921_a_at) / Fold change /veh ZSCAN30 (11745921_a_at) / RFU CMKLR1 (11741424_a_at) / Fold change /veh CMKLR1 (11741424_a_at) / RFU LOC101060620 /// MAPK8IP1 (11723275_at) / Fold change /veh LOC101060620 /// MAPK8IP1 (11723275_at) / RFU SPTSSB (11747773_x_at) / Fold change /veh SPTSSB (11747773_x_at) / RFU PRSS12 (11739890_at) / Fold change /veh PRSS12 (11739890_at) / RFU BIN1 (11741810_x_at) / Fold change /veh BIN1 (11741810_x_at) / RFU WNT11 (11732464_a_at) / Fold change /veh WNT11 (11732464_a_at) / RFU C10orf10 (11716521_a_at) / Fold change /veh C10orf10 (11716521_a_at) / RFU C5orf56 (11738089_at) / Fold change /veh C5orf56 (11738089_at) / RFU CYB561 (11721691_x_at) / Fold change /veh CYB561 (11721691_x_at) / RFU ANKRD19P (11752326_a_at) / Fold change /veh ANKRD19P (11752326_a_at) / RFU OR2T12 /// OR2T33 /// OR2T8 (11738714_s_at) / Fold change /veh OR2T12 /// OR2T33 /// OR2T8 (11738714_s_at) / RFU VCAN (11748164_a_at) / Fold change /veh VCAN (11748164_a_at) / RFU JSRP1 (11732532_at) / Fold change /veh JSRP1 (11732532_at) / RFU KRTAP10-11 (11738290_x_at) / Fold change /veh KRTAP10-11 (11738290_x_at) / RFU MYO3A (11730013_a_at) / Fold change /veh MYO3A (11730013_a_at) / RFU EBF3 (11725865_a_at) / Fold change /veh EBF3 (11725865_a_at) / RFU CAMK2N1 (11719241_x_at) / Fold change /veh CAMK2N1 (11719241_x_at) / RFU C5orf56 (11738088_a_at) / Fold change /veh C5orf56 (11738088_a_at) / RFU OLFML3 (11715873_a_at) / Fold change /veh OLFML3 (11715873_a_at) / RFU LOC100653217 /// NTM (11731650_a_at) / Fold change /veh LOC100653217 /// NTM (11731650_a_at) / RFU MAPK11 (11762145_a_at) / Fold change /veh MAPK11 (11762145_a_at) / RFU FIZ1 (11724087_x_at) / Fold change /veh FIZ1 (11724087_x_at) / RFU OASL (11726364_x_at) / Fold change /veh OASL (11726364_x_at) / RFU SOX15 (11748057_x_at) / Fold change /veh SOX15 (11748057_x_at) / RFU CD79A (11719716_a_at) / Fold change /veh CD79A (11719716_a_at) / RFU HIST1H1D (11736915_at) / Fold change /veh HIST1H1D (11736915_at) / RFU CASKIN2 (11723855_a_at) / Fold change /veh CASKIN2 (11723855_a_at) / RFU LOC730098 (11760151_x_at) / Fold change /veh LOC730098 (11760151_x_at) / RFU OR4N2 (11742367_at) / Fold change /veh OR4N2 (11742367_at) / RFU PRRT2 (11749266_a_at) / Fold change /veh PRRT2 (11749266_a_at) / RFU SNX32 (11753110_a_at) / Fold change /veh SNX32 (11753110_a_at) / RFU CDHR5 (11726645_a_at) / Fold change /veh CDHR5 (11726645_a_at) / RFU RCAN1 (11760418_a_at) / Fold change /veh RCAN1 (11760418_a_at) / RFU FAM167A (11723789_a_at) / Fold change /veh FAM167A (11723789_a_at) / RFU FAM26E (11764081_at) / Fold change /veh FAM26E (11764081_at) / RFU ISYNA1 (11749810_s_at) / Fold change /veh ISYNA1 (11749810_s_at) / RFU ACY1 (11761880_at) / Fold change /veh ACY1 (11761880_at) / RFU 11764098_at / Fold change /veh 11764098_at / RFU SAMD14 (11745864_x_at) / Fold change /veh SAMD14 (11745864_x_at) / RFU NPB (11741838_a_at) / Fold change /veh NPB (11741838_a_at) / RFU TMPRSS6 (11731388_a_at) / Fold change /veh TMPRSS6 (11731388_a_at) / RFU KRTAP10-2 (11738614_at) / Fold change /veh KRTAP10-2 (11738614_at) / RFU ARHGAP8 /// PRR5-ARHGAP8 (11727945_x_at) / Fold change /veh ARHGAP8 /// PRR5-ARHGAP8 (11727945_x_at) / RFU KRTAP5-7 /// NADSYN1 (11734609_at) / Fold change /veh KRTAP5-7 /// NADSYN1 (11734609_at) / RFU RASL12 (11751679_a_at) / Fold change /veh RASL12 (11751679_a_at) / RFU CDKN2B (11736163_a_at) / Fold change /veh CDKN2B (11736163_a_at) / RFU PRF1 (11729649_at) / Fold change /veh PRF1 (11729649_at) / RFU, ZNF638 /// ZNF638-IT1 / Fold change vs veh, ZNF638 /// ZNF638-IT1 / RFU, PANK3 / Fold change vs veh, PANK3 / RFU, SH3YL1 / Fold change vs veh, SH3YL1 / RFU, ZEB2 / Fold change vs veh, ZEB2 / RFU, NRIP1 / Fold change vs veh, NRIP1 / RFU, PTTG1IP / Fold change vs veh, PTTG1IP / RFU, CAPN2 / Fold change vs veh, CAPN2 / RFU, MED14 / Fold change vs veh, MED14 / RFU, SNORA58 / Fold change vs veh, SNORA58 / RFU, C1orf63 / Fold change vs veh, C1orf63 / RFU, LRRFIP1 / Fold change vs veh, LRRFIP1 / RFU, NDUFAF7 / Fold change vs veh, NDUFAF7 / RFU, SLC12A2 / Fold change vs veh, SLC12A2 / RFU, IBTK / Fold change vs veh, IBTK / RFU, ESF1 / Fold change vs veh, ESF1 / Fold change vs veh, TMEM50B / RFU, TAOK1 / Fold change vs veh, TAOK1 / RFU, ACBD3 / Fold change vs veh, ACBD3 / RFU, TMA16 / Fold change vs veh, TMA16 / RFU, RWDD3 / Fold change vs veh, RWDD3 / RFU, BCAT1 / Fold change vs veh, BCAT1 / RFU, EDEM3 / Fold change vs veh, EDEM3 / RFU, TMEM33 / Fold change vs veh, TMEM33 / RFU, WDR75 / Fold change vs veh, WDR75 / RFU, AHCTF1 / Fold change vs veh, AHCTF1 / RFU, TFRC / Fold change vs veh, TFRC / RFU, ZDHHC17 / Fold change vs veh, ZDHHC17 / RFU, NOM1 / Fold change vs veh, NOM1 / RFU, ARL8B / Fold change vs veh, ARL8B / RFU, ZBTB11 / Fold change vs veh, ZBTB11 / RFU, TAMM41 / Fold change vs veh, TAMM41 / RFU, KIAA1704 /// LOC100996395 / Fold change vs veh, KIAA1704 /// LOC100996395 / RFU, ING1 / Fold change vs veh, ING1 / RFU, TRMT61B / Fold change vs veh, TRMT61B / RFU, FUBP3 / Fold change vs veh, FUBP3 / RFU, TP53 / Fold change vs veh, TP53 / RFU, TNKS2 / Fold change vs veh, TNKS2 / RFU, ZFP14 / Fold change vs veh, ZFP14 / RFU, ACTR2 / Fold change vs veh, ACTR2 / RFU, PPP3R1 / Fold change vs veh, PPP3R1 / RFU, PIK3R1 / Fold change vs veh, PIK3R1 / RFU, HNRNPA1 / Fold change vs veh, HNRNPA1 / RFU, RNF170 / Fold change vs veh, RNF170 / RFU, ZNF28 / Fold change vs veh, ZNF28 / RFU, RNGTT / Fold change vs veh, RNGTT / RFU, OGT / Fold change vs veh, OGT / RFU, BRD1 / Fold change vs veh, BRD1 / RFU, MARS / Fold change vs veh, MARS / RFU, ZNF655 / Fold change vs veh, ZNF655 / RFU, FAHD1 / Fold change vs veh, FAHD1 / RFU, BDP1 / Fold change vs veh, BDP1 / RFU, LRRCC1 / Fold change vs veh, LRRCC1 / RFU, ARID1A / Fold change vs veh, ARID1A / RFU, ZNF146 / Fold change vs veh, ZNF146 / RFU, ZNF330 / Fold change vs veh, ZNF330 / RFU, GPN3 / Fold change vs veh, GPN3 / RFU, C9orf123 / Fold change vs veh, C9orf123 / RFU, N4BP2L2 / Fold change vs veh, N4BP2L2 / RFU, ARFIP1 / Fold change vs veh, ARFIP1 / RFU, FAM179B / Fold change vs veh, FAM179B / RFU, BCL10 / Fold change vs veh, BCL10 / RFU, UHRF1BP1L / Fold change vs veh, UHRF1BP1L / RFU, BET1 / Fold change vs veh, BET1 / RFU, CNOT2 / Fold change vs veh, CNOT2 / RFU, ZNF268 / Fold change vs veh, ZNF268 / Fold change vs veh, ZNF507 / RFU, DGCR2 / Fold change vs veh, DGCR2 / RFU, WDSUB1 / Fold change vs veh, WDSUB1 / Fold change vs veh, HSP90B1 /// MIR3652 / RFU, ADSS / Fold change vs veh, ADSS / RFU, GK / Fold change vs veh, GK / RFU, ZNF148 / Fold change vs veh, ZNF148 / RFU, TAF9 / Fold change vs veh, TAF9 / RFU, SLC1A5 / Fold change vs veh, SLC1A5 / RFU, SLMO2 / Fold change vs veh, SLMO2 / RFU, ABCC4 / Fold change vs veh, ABCC4 / RFU, LOC101060439 /// RAP1B / Fold change vs veh, LOC101060439 /// RAP1B / RFU, RFX7 / Fold change vs veh, RFX7 / RFU, GTPBP10 / Fold change vs veh, GTPBP10 / RFU, CNEP1R1 / Fold change vs veh, CNEP1R1 / RFU, BIVM-ERCC5 /// ERCC5 / Fold change vs veh, BIVM-ERCC5 /// ERCC5 / RFU, ILF3 / Fold change vs veh, ILF3 / RFU 11762660_at / Fold change /veh 11762660_at / RFU VCAN (11757783_s_at) / Fold change /veh VCAN (11757783_s_at) / RFU DDX43 (11728927_at) / Fold change /veh DDX43 (11728927_at) / RFU KRT8 (11758188_x_at) / Fold change /veh KRT8 (11758188_x_at) / RFU NKD1 (11759106_at) / Fold change /veh NKD1 (11759106_at) / RFU SRD5A1 (11742802_a_at) / Fold change /veh SRD5A1 (11742802_a_at) / RFU TPSAB1 /// TPSB2 (11721975_s_at) / Fold change /veh TPSAB1 /// TPSB2 (11721975_s_at) / RFU GSTM3 (11746129_a_at) / Fold change /veh GSTM3 (11746129_a_at) / RFU IL23R (11737362_x_at) / Fold change /veh IL23R (11737362_x_at) / RFU TMEM51 (11727254_a_at) / Fold change /veh TMEM51 (11727254_a_at) / RFU PIWIL2 (11732686_x_at) / Fold change /veh PIWIL2 (11732686_x_at) / RFU ORM1 (11744905_x_at) / Fold change /veh ORM1 (11744905_x_at) / RFU CCDC152 (11743942_at) / Fold change /veh CCDC152 (11743942_at) / RFU ECM1 (11717891_a_at) / Fold change /veh ECM1 (11717891_a_at) / RFU IL23R (11748794_a_at) / Fold change /veh IL23R (11748794_a_at) / RFU TNFAIP8L3 (11732012_x_at) / Fold change /veh TNFAIP8L3 (11732012_x_at) / RFU MBOAT4 (11741988_at) / Fold change /veh MBOAT4 (11741988_at) / RFU 11764193_at / Fold change /veh 11764193_at / RFU TMEM53 (11763286_at) / Fold change /veh TMEM53 (11763286_at) / RFU MAGEB2 (11727129_at) / Fold change /veh MAGEB2 (11727129_at) / RFU TMEM200A (11744735_a_at) / Fold change /veh TMEM200A (11744735_a_at) / RFU CCDC152 (11751479_a_at) / Fold change /veh CCDC152 (11751479_a_at) / RFU FAM211A (11726209_a_at) / Fold change /veh FAM211A (11726209_a_at) / RFU RGS16 (11746705_a_at) / Fold change /veh RGS16 (11746705_a_at) / RFU VCAN (11755009_s_at) / Fold change /veh VCAN (11755009_s_at) / RFU RHOB (11743442_s_at) / Fold change /veh RHOB (11743442_s_at) / RFU RGS16 (11720943_a_at) / Fold change /veh RGS16 (11720943_a_at) / RFU RGS16 (11720944_at) / Fold change /veh RGS16 (11720944_at) / RFU, VPS4B / Fold change vs veh, VPS4B / RFU, CREB1 / Fold change vs veh, CREB1 / RFU, DNAJC13 / Fold change vs veh, DNAJC13 / RFU, GNAQ / Fold change vs veh, GNAQ / RFU, CDK5R1 / Fold change vs veh, CDK5R1 / RFU, ZRANB3 / Fold change vs veh, ZRANB3 / RFU, CUL4A / Fold change vs veh, CUL4A / RFU, CCNY / Fold change vs veh, CCNY / RFU, UFL1 / Fold change vs veh, UFL1 / RFU, COG3 / Fold change vs veh, COG3 / RFU, DIAPH2 / Fold change vs veh, DIAPH2 / RFU, SKA2 / Fold change vs veh, SKA2 / RFU, AFF3 / Fold change vs veh, AFF3 / RFU, LMF1 / Fold change vs veh, LMF1 / RFU, IPO11 / Fold change vs veh, IPO11 / RFU, DFFB / Fold change vs veh, DFFB / RFU, FOXP1 / Fold change vs veh, FOXP1 / RFU, CARD8 / Fold change vs veh, CARD8 / RFU, STRN3 / Fold change vs veh, STRN3 / RFU, ADK / Fold change vs veh, ADK / RFU, RASSF2 / Fold change vs veh, RASSF2 / RFU, WIPF1 / Fold change vs veh, WIPF1 / RFU, LARP1B / Fold change vs veh, LARP1B / RFU, RASA1 / Fold change vs veh, RASA1 / RFU, RB1 / Fold change vs veh, RB1 / RFU, PPFIA1 / Fold change vs veh, PPFIA1 / RFU, MAT2A / Fold change vs veh, MAT2A / RFU, CCT5 / Fold change vs veh, CCT5 / RFU, WDR92 / Fold change vs veh, WDR92 / RFU, CUX1 / Fold change vs veh, CUX1 / RFU, TTC7A / Fold change vs veh, TTC7A / RFU, TMEM135 / Fold change vs veh, TMEM135 / RFU, DEPTOR / Fold change vs veh, DEPTOR / RFU, CPM / Fold change vs veh, CPM / RFU, DNAJB6 / Fold change vs veh, DNAJB6 / RFU, CACNA2D3 / Fold change vs veh, CACNA2D3 / RFU, DTX4 / Fold change vs veh, DTX4 / RFU, TFCP2 / Fold change vs veh, TFCP2 / RFU, GMCL1 /// GMCL1P1 / Fold change vs veh, GMCL1 /// GMCL1P1 / RFU, AEBP2 / Fold change vs veh, AEBP2 / RFU, SNHG1 /// SNORD22 /// SNORD25 /// SNORD26 /// SNORD27 /// SNORD28 /// SNORD29 /// SNORD31 / Fold change vs veh, SNHG1 /// SNORD22 /// SNORD25 /// SNORD26 /// SNORD27 /// SNORD28 /// SNORD29 /// SNORD31 / Fold change (Aza/veh), C12orf56 (ProbeSet 11735607_a_at) / Fold change (ACY-1035/veh), C12orf56 (ProbeSet 11735607_a_at) / Fold change (Aza/veh), FGFR1OP (ProbeSet 11751329_s_at) / Fold change (ACY-1035/veh), FGFR1OP (ProbeSet 11751329_s_at) / Fold change (Aza/veh), VPS36 (ProbeSet 11739960_a_at) / Fold change (ACY-1035/veh), VPS36 (ProbeSet 11739960_a_at) / RFU SYPL1 (11715823_x_at) / Fold change /veh SYPL1 (11715823_x_at) / RFU IGFBP7 (11715501_s_at) / Fold change /veh IGFBP7 (11715501_s_at) / RFU REEP3 (11722064_at) / Fold change /veh REEP3 (11722064_at) / RFU IGLL1 (11728026_x_at) / Fold change /veh IGLL1 (11728026_x_at): dose or concentration left out as unconfirmed. The following applies: MV-4-11 cells, 48 hours.

We go through one molecule from publication PMC5218480 (PLoS ONE, 2017).

With `Nc1ccc(-c2cccs2)cc1NC(=O)c1ccc2c(c1)cc(C1CC1)n2CCN1CCOCC1` [ACY-1035], the “RFU CCDC152 (11743942_at)” value is recorded as 5.45 RFU.
